Measured values as given in article PMC11223215, “Metronidazole Interaction with Cu^2+ and Zn^2+: Speciation Study in Aqueous Solution and Biological Activity Evaluation” (ACS Omega, 2024).
In brackets after ≈: the same amount, converted by molar mass. Like-named read-outs stand apart in the source and are kept apart here.

Assays:
[1] = system: Trypanosoma cruzi Tulahuen CL2 amastigote stage; test: In vitro activity against T. cruzi; type: cell-based; conditions: T. cruzi Tulahuen CL2 amastigotes on MRC-5 cells, 7 days
Description: (§1) Briefly, S. aureus and E. coli were cultured in MHT (Mueller Hinton Broth) and maintained on TSA (Tryptone Soy Agar). T. cruzi, Tulahuen CL2 galactosidase strain (nifurtimox- sensitive), was maintained on MRC-5SV2 (human lung fibroblast) cells in MEM medium, supplemented with 200 mmol L^–1L-glutamine, 16.5 mmol L^–1 NaHCO3, and 5% inactivated fetal calf serum. The T. b. brucei Squib 427 strain (suramine-sensitive) and T. b. rhodesiense STIB-900 strain were maintained in Hirumi’s Modified Iscove’s medium-9 (HMI-9) medium, supplemented with 10% inactivated fetal calf serum. MRC-5SV2 cells were cultured in MEM + Earle’s salts-medium, supplemented with 2 mmol L^–1L-glutamine, 16.5 mmol L^–1 NaHCO3, and 5% inactivated fetal calf serum. All cultures were incubated at 37 °C under an atmosphere of 5% CO2.
The assay was performed at 37 °C under an atmosphere of 5% CO2 in sterile 96-well microtiter plates, each well containing 10 μL of the aqueous compound together with MRC-5 cell/parasite inoculum (190 μL; 4 × 10^3 cells/well + 4 × 10^4 parasites/well). The compounds were tested at 64, 16, 4, 1, and 0.25 μmol L^–1. Parasite growth was compared to that of untreated-infected controls and uninfected controls. After 7 days of incubation, parasite burdens were assessed after adding the substrate CPRG [chlorophenolred β-D-galactopyranoside; 50 μL/well of a solution of CPRG (15.2 mg); and Nonidet (250 μL) in PBS (100 mL)]. The sample was analyzed spectrophotometrically at 540 nm after 4 h. The results were expressed as % reduction in parasite burden compared to control wells, and an IC50 was calculated.

[2] = system: Trypanosoma brucei brucei Squib-427 strain, suramin-sensitive, trypomastigote stage; test: In vitro activity against T. b. brucei; type: cell-based; conditions: T. b. brucei Squib-427 trypomastigotes, 3 days, resazurin
Description: as §1
(§2) The assay was performed at 37 °C under an atmosphere of 5% CO2 in sterile 96-well microtiter plates, each well containing the aqueous compound (10 μL) dilution together with the parasite suspension [190 μL; 1.5 × 10^3 parasites/well (T. b. brucei) or 4 × 10^3 parasites/well (T. rhodesiense)]. The compounds were tested at 64, 16, 4, 1, and 0.25 μmol L^–1. Parasite growth was compared to untreated-infected controls and uninfected controls. After 3 days of incubation, parasite growth was assessed fluorimetrically after addition of resazurin [50 μL; 50 μg/mL in phosphate buffer] to each well. After 6 h (T. b. rhodesiense) or 24 h (T. b. brucei) at 37 °C, fluorescence was measured (λex 550 nm, λem 590 nm). The results were expressed as % reduction in parasite growth/viability compared to control wells, and an IC50 was calculated.

[3] = system: Trypanosoma brucei rhodesiense STIB900 strain, drug susceptible, trypomastigote stage; test: In vitro activity against T. b. rhodesiense; type: cell-based; conditions: T. b. rhodesiense STIB900 trypomastigotes, 3 days, resazurin
Description: as §1, §2

Staphylococcus aureus = test: In vitro activity against S. aureus; type: cell-based; conditions: resazurin
Description: as §1
(§3) The assays were performed at 37 °C in sterile 96-well microtiter plates, each well containing 10 μL of aqueous compound together with a bacterial/fungal/MRC-5 inoculum (190 μL; 5 × 10^3 CFU/mL). The compounds were tested at 64, 16, 4, 1, and 0.25 μ-mol L^–1. Bacterial/fungal/MRC-5 growth was compared to untreated-control wells (100% growth) and medium-control wells (0% cell growth). After 3 days of incubation, 50 μL of resazurin was added in each well. After 30 min at 37 °C, the fluorescence was measured at λex = 550 nm and λem = 590 nm. The results are expressed as % reduction in cell growth/viability compared to control wells, and IC50 values were determined.

Escherichia coli = test: In vitro activity against E. coli; type: cell-based; conditions: resazurin
Description: as §1, §3

[4] = system: Leishmania infantum (intracellular amastigotes); test: In vitro activity against L. infantum; type: cell-based
Candida albicans = test: In vitro activity against C. albicans; type: cell-based
Description: as §3

Aspergillus fumigatus = test: In vitro activity against A. fumigatus; type: cell-based
Description: as §3

[5] = system: MRC-5 human fetal lung fibroblasts; test: Cytotoxicity on MRC-5 cells; type: cell-based; conditions: MRC-5 human fetal lung fibroblasts cytotoxicity
Description: as §3, with “Briefly, S. aureus and E. coli were cultured in MHT (Mueller Hinton Broth) and maintained on TSA (Tryptone Soy Agar). […] The T. b. brucei Squib 427 strain (suramine-sensitive) and T. b. rhodesiense STIB-900 strain were maintained in Hirumi’s Modified Iscove’s medium-9 (HMI-9) medium, supplemented with 10% inactivated fetal calf serum. […] All cultures were incubated at 37 °C under an atmosphere of 5% CO2. The assays” for “The assays”

[6] = system: Primary peritoneal mouse macrophages (PMM); test: Cytotoxicity on primary peritoneal mouse macrophages; type: cell-based
[7] = Cytotoxicity on MRC-5 cells; type: cell-based; conditions: MRC-5 SV2 human fetal lung fibroblasts; MRC-5 human fetal lung fibroblasts cytotoxicity
Description: as §3, with “Briefly, S. aureus and E. coli were cultured in MHT (Mueller Hinton Broth) and maintained on TSA (Tryptone Soy Agar). […] The T. b. brucei Squib 427 strain (suramine-sensitive) and T. b. rhodesiense STIB-900 strain were maintained in Hirumi’s Modified Iscove’s medium-9 (HMI-9) medium, supplemented with 10% inactivated fetal calf serum. […] All cultures were incubated at 37 °C under an atmosphere of 5% CO2. The assays” for “The assays”

[8] = Cytotoxicity on primary peritoneal mouse macrophages; type: cell-based; conditions: primary peritoneal mouse macrophages (PMM)
[9] = Sequestering ability of MNZ (pL0.5) toward Cu2+; type: physicochemical; conditions: toward Cu^2+, t = 37 °C, I = 0.15 mol L^–1, pH = 7.4
Text: (§4) The tendency of a ligand to complex a free metal cation in solution to form metal–ligand species is expressed as the sequestering ability. To describe the sequestering ability of a ligand toward a certain metal cation, however, the mere knowledge of formation constants is not enough as it is necessary to consider all the possible interactions that both ligand and metal cation may have with all the species present in solution. In order to define it quantitatively, the empirical parameter pL0.5 was introduced, which represents the cologarithm of the ligand concentration necessary to sequester 50% of the metal cation in traces.[34],[35] The calculation is based on the following Boltzmann-type sigmoidal equation: [drawing 33] 3 where χ is the sum of molar fractions of the different complex species and pL is the cologarithm of the total ligand concentration.
(§5) A comparison between the sequestering ability of MNZ toward Zn^2, Cu^2+, and Ca^2+ (one of the main metal cations present in human body and previously studied in our recent work[30]) was evaluated under physiological conditions.

[10] = Sequestering ability of MNZ (pL0.5) toward Zn2+; type: physicochemical; conditions: toward Zn^2+, t = 37 °C, I = 0.15 mol L^–1, pH = 7.4
Text: as §4, §5

[11] = Sequestering ability of MNZ (pL0.5) toward Ca2+; type: physicochemical; conditions: toward Ca^2+, t = 37 °C, I = 0.15 mol L^–1, pH = 7.4
Text: as §4, §5

[12] = Trypanosoma brucei, 72 h, read-out: IC50
[13] = Staphylococcus aureus, read-out: IC50
[14] = Escherichia coli, read-out: IC50
[15] = Trypanosoma cruzi, MRC5, 168 h, read-out: IC50
[16] = Leishmania infantum, read-out: IC50
[17] = Candida albicans, read-out: IC50

With `[Cl][Cu][Cl]` [Cu^2+] the IC50 [1] was >2.42 µg/mL, the IC50 [2] was 0.75 µg/mL and the IC50 [3] was 0.94 µg/mL. For the same compound, the IC50 (Staphylococcus aureus) was >2.42 µg/mL, the IC50 (Escherichia coli) was >2.42 µg/mL and the IC50 [4] was >2.42 µg/mL. The IC50 (Candida albicans) was >2.42 µg/mL, the IC50 (Aspergillus fumigatus) was >2.42 µg/mL and the CC50 [5] was >2.42 µg/mL. The CC50 [6] was >2.42 µg/mL.
Compound `Cc1ccc(C(=O)Nc2ccc(S(=O)(=O)O)c3cc(S(=O)(=O)O)cc(S(=O)(=O)O)c23)cc1NC(=O)c1cccc(NC(=O)Nc2cccc(C(=O)Nc3cc(C(=O)Nc4ccc(S(=O)(=O)O)c5cc(S(=O)(=O)O)cc(S(=O)(=O)O)c45)ccc3C)c2)c1` [Suramine] has an IC50 [2, 12] of 0.03 µg/mL (≈ 0.0231 µM) and an IC50 [3, 12] of 0.07 µg/mL (≈ 0.054 µM).
`C[C@H]1c2cccc(O)c2C(=O)C2=C(O)[C@]3(O)C(=O)C(C(N)=O)=C(O)[C@@H](N(C)C)[C@@H]3[C@@H](O)[C@@H]21` [Doxycycline] gave an IC50 (Staphylococcus aureus; [13]) of 0.08 µg/mL (≈ 0.18 µM) and an IC50 (Escherichia coli; [14]) of 0.64 µg/mL (≈ 1.44 µM).
With `[Cl-].[Cl-].[Zn+2]` [Zn^2+] the IC50 [1] was >1.79 µg/mL, the IC50 [2] was >1.79 µg/mL and the IC50 [3] was >1.79 µg/mL. The IC50 (Staphylococcus aureus) was >1.79 µg/mL, the IC50 (Escherichia coli) was >1.79 µg/mL and the IC50 [4] was >1.79 µg/mL. For the same compound, the IC50 (Candida albicans) was >1.79 µg/mL, the IC50 (Aspergillus fumigatus) was >1.79 µg/mL and the CC50 [5] was >1.79 µg/mL. For the same compound, the CC50 [6] was >1.79 µg/mL.
For `Cc1ncc([N+](=O)[O-])n1CCO` [MNZ(L), 2-methyl-5-nitro-1H-imidazole-1-ethanol], the IC50 [1, 15] was > 5.64 µg/mL, the IC50 [2, 12] was > 5.64 µg/mL and the IC50 [3, 12] was > 5.64 µg/mL. For the same compound, the IC50 (Staphylococcus aureus; [13]) was > 5.64 µg/mL, the IC50 (Escherichia coli; [14]) was > 5.64 µg/mL and the IC50 [4, 16] was > 5.64 µg/mL. For the same compound, the IC50 (Candida albicans; [17]) was > 5.64 µg/mL, the IC50 (Aspergillus fumigatus; Aspergillus fumigatus, read-out: IC50) was > 5.64 µg/mL and the CC50 at 3 days [7] was > 5.64 µg/mL. The CC50 [8] was > 5.64 µg/mL, the pL0.5 [9] was 4.3 and the pL0.5 [10] was 3.1. The pL0.5 [11] was 1.9.
With `O=C(Cn1ccnc1[N+](=O)[O-])NCc1ccccc1` [Benznidazol] the IC50 [1, 15] was 0.43 µg/mL (≈ 1.65 µM).
Work on `Nc1[nH]c(=O)ncc1F` [Flucytosine] yielded an IC50 (Candida albicans; [17]) of 0.51 µg/mL (≈ 3.95 µM).
Compound `CCCCCCCCCCCCCCCCOP(=O)([O-])OCC[N+](C)(C)C` [Miltefosine] has an IC50 [4, 16] of 2.05 µg/mL (≈ 5.03 µM).
